Source: a compilation of properties of binary mixtures (doi:10.1016/j.jct.2012.02.027)

Assay: xn = mol fraction of the nth substance listed
Conditions: 101 kPa

CCO + CC(=O)[O-].CC[n+]1ccn(C)c1
x1 = 1
Conditions	viscosity [mPa·s]
298.15 K	1.09
313.15 K	0.83
328.15 K	0.64
343.15 K	0.5

O + CC(=O)[O-].CC[n+]1ccn(C)c1
x1 = 1
Conditions	viscosity [mPa·s]
328.15 K	0.51
343.15 K	0.41

CC(=O)[O-].CC[n+]1ccn(C)c1 + CCO
viscosity [mPa·s]
Conditions	298.15 K	313.15 K	328.15 K	343.15 K
x2 = 0	132.9	57.7	–	18.1
x2 = 0.1059	92.3	–	24.1	–
x2 = 0.1638	75	36.9	21.14	13.51
x2 = 0.2471	54.2	–	17.22	11.24
x2 = 0.3504	35.2	20.3	12.77	–
x2 = 0.4165	26.5	16.06	10.47	–
x2 = 0.4824	19.82	12.48	8.44	6.05
x2 = 0.5572	14.11	–	6.48	4.76
x2 = 0.6646	8.27	5.79	4.27	3.27
x2 = 0.7494	5.35	–	2.96	2.33
x2 = 0.8666	–	2.02	1.59	1.28

CC[n+]1ccn(C)c1.N#C[N-]C#N + CCO
viscosity [mPa·s]
Conditions	298.15 K	313.15 K	328.15 K	343.15 K
x2 = 0	14.9	–	–	5.48
x2 = 0.102	12.69	8.69	6.32	4.85
x2 = 0.1981	10.8	7.53	5.5	–
x2 = 0.279	9.27	6.58	4.86	3.81
x2 = 0.3596	7.85	–	–	3.37
x2 = 0.4741	6.04	4.45	3.47	2.76
x2 = 0.6028	–	3.31	2.59	2.13
x2 = 0.6867	3.47	2.65	2.09	1.7
x2 = 0.7678	–	2.1	1.67	1.37
x2 = 0.8503	2.08	1.63	1.3	1.1
x2 = 0.9327	1.53	1.19	0.93	0.75

CCO + CC[n+]1ccn(C)c1.N#C[N-]C#N
x1 = 1
Conditions	viscosity [mPa·s]
298.15 K	1.09
343.15 K	0.5

O + CC[n+]1ccn(C)c1.N#C[N-]C#N
Conditions	viscosity [mPa·s]
298.15 K, x1 = 1	0.89

CC(=O)[O-].CC[n+]1ccn(C)c1 + O
viscosity [mPa·s]
Conditions	298.15 K	313.15 K	328.15 K	343.15 K
x2 = 0	–	57.7	30.3	18.1
x2 = 0.0992	–	49.5	–	16.46
x2 = 0.222	89.2	42.3	23.49	–
x2 = 0.3233	73	36	20.48	13.21
x2 = 0.4207	–	30.2	–	11.11
x2 = 0.5408	–	–	13.85	–
x2 = 0.6135	–	19.09	11.44	7.48
x2 = 0.6805	28.8	15.63	–	–
x2 = 0.7482	21.9	11.99	7.32	4.87
x2 = 0.8134	15.44	8.51	–	3.57
x2 = 0.9067	6.16	3.74	2.54	1.81

CC[n+]1ccn(C)c1.N#C[N-]C#N + O
viscosity [mPa·s]
Conditions	298.15 K	313.15 K	328.15 K	343.15 K
x2 = 0	–	10.07	7.26	–
x2 = 0.1299	12.78	8.71	6.33	4.84
x2 = 0.2248	–	–	5.65	4.34
x2 = 0.3042	–	7.04	5.11	3.94
x2 = 0.4308	–	5.8	4.3	3.33
x2 = 0.5429	6.96	4.81	3.58	2.78
x2 = 0.6534	5.41	3.81	2.84	2.23
x2 = 0.7355	4.41	3.11	2.32	1.8
x2 = 0.7944	–	2.56	–	1.48
x2 = 0.8803	–	–	1.31	1.04
x2 = 0.953	1.47	–	0.82	0.66
